Measured values as given in paper PMC9457533, “Study on Metronidazole Acid-Base Behavior and Speciation with Ca^2+ for Potential Applications in Natural Waters” (Molecules, 2022).
“And” between values parts separate entries of the source, which are not always exact repeats. Equal entries are not always repeated.

Assays:
[1] = Dependence of protonation constants on ionic strength (Debye-Hückel type equation); format: physicochemical; conditions: t = 25 °C, NaCl; for log^Tβ (constant at infinite dilution): extrapolated to I = 0 mol L^-1
Excerpt: (§1) The choice to carry out the experiments at various ionic strengths made it possible to study the dependence of the values of the protonation and formation constants on the ionic strength, expressed by a Debye-Hückel type equation, reported below: (5) logβ=logβ^T − 0.51 z* I/1 + 1.5 I + CI where β^T is the protonation constant at infinite dilution, z* is the parameter that refers to the charges present in the solution corresponding to ∑z^2reagents − ∑z^2products, and C refers to the empirical parameter that depends on the stoichiometric coefficients and on the charges. Using Equation (5) and equilibrium constants at various ionic strength values, the formation constants extrapolated to I = 0 mol L^−1, together with the empirical parameter C, were obtained.
(§2) The protonation constant of MNZ (L), formation constant values of Ca^2+(M)-MNZ (L), and titration parameters (analytical concentration of the reagents, standard potential E^0, junction potential) were determined by using BSTAC and STACO programs. LIANA program has provided the parameters characterizing the dependence of the protonation and formation constant values on the temperature and ionic strength. More details on software are present in ref. [59]. ^1H NMR data were processed by HypNMR software, which allows for calculating protonation and formation constant values and the individual chemical shift of species through the observed signals and assuming fast mutual exchange in the NMR time scale. UV-Vis data are processed by the HypSpec program, which allows refining of the protonation and formation constant as well as the molar absorption coefficient values (ε) of the species. The speciation diagrams and the formation percentage of the species are determined by the Hyss program.

[2] = Dependence of Ca^2+-MNZ formation constant on ionic strength (Debye-Hückel type equation); format: physicochemical; conditions: Ca + L + H = CaLH, t = 25 °C, NaCl
Excerpt: as §1
The protonation constant of MNZ (L), formation constant values of Ca^2+(M)-MNZ (L), and titration parameters (analytical concentration of the reagents, standard potential E^0, junction potential) were determined by using BSTAC and STACO programs. LIANA program has provided the parameters characterizing the dependence of the protonation and formation constant values on the temperature and ionic strength. […] The speciation diagrams and the formation percentage of the species are determined by the Hyss program.

[3] = UV-Vis spectrophotometric titrations: protonation constants of MNZ; format: physicochemical; conditions: t = 25 °C; for logβ UV: I = 0.15 mol L^-1
Description: As widely reported in the literature, the high ability of L to absorb in the UV range has often been used to determine quantitatively and qualitatively this antibiotic in waters. Various spectrophotometric titrations on solutions containing L and M-L mixtures were performed to investigate L spectral behavior and to confirm the protonation and formation constants values as well as the speciation model obtained by potentiometry, as already shown with other systems.
The spectrophotometric titrations were performed with a Varian Cary 50 UV-Vis spectrophotometer characterized by an optical fiber with a fixed 1 cm path length. The system was interfaced to a PC by the Varian Cary WinUV software. For all titrations, a Thermo-Fisher glass electrode was also used to record simultaneously the couple of data absorbance (A) and e.m.f. (mV) vs. volume of titrant (mL), for each titration point. The analyses were carried out in a thermostated cell, in which N2 was bubbled in solution to avoid CO2 and O2.
as §2

[4] = Potentiometric titrations: formation constant of Ca^2+-MNZ species (CaLH) in NaCl; format: physicochemical; conditions: for logK^CaLH: Ca + LH = CaLH
Description: To investigate the interaction between MNZ and Ca^2+, various potentiometric titrations were also performed on solutions containing different metal/ligand ratios. The reactions related to formation constants are indicated below, where the charges are omitted for simplicity and MNZ was indicated as L:Ca + L + rH = MLHr β^MLH^r(3) Ca + LHr = MLHr K^MLH^r(4)
Hydrolysis constant values of Ca^2+ species at various temperatures and ionic strength in NaCl, taken into account in the calculations relating to the M-L system, are reported in Supplementary Material. The most accurate speciation model is chosen by evaluating several factors, which are the statistical parameters standard and mean deviation, the formation percentages of the considered species, and the simplicity of the model. Based on potentiometric results, several computational tests were carried out considering different speciation models.
The potentiometric titrations were employed by Metrohm-Titrando 809 automated potentiometer with a combined glass electrode ORION, type Ross 8102SC and a Metrohm Dosino 800 automatic dispenser. The titrations were performed in cells with a capacity of 25 mL, characterized by a double wall inside which thermostated water circulates. The cells were connected to a thermostat model D1-G Haake. During the measurements, pure N2 was bubbled to avoid CO2 and O2 in solution. The system is interfaced to a PC through the Metrohm TIAMO 2.0 software, which automatically acquires the mL/mV pairs. It can control several parameters, such as e.m.f. stability, titrant delivery, and data acquisition. Estimated accuracy of this apparatus is ±0.15 mV and ±0.002 mL for e.m.f. and for readings of titrant volume. The acid-base titrations were carried out first on 25 mL solutions containing L, HCl, and NaCl as supporting electrolytes at different temperatures and ionic strength conditions. […] The solutions were titrated using standard NaOH solution. A calibration was associated with each measurement by titration with NaOH of a solution containing HCl, NaCl, and H2O, in order to calculate the standard electrode potential (E^0) and the pKw values.
as §2

[5] = Speciation simulation of MNZ under sea water conditions; conditions: pH = 8.1, I = 0.7 mol L^-1, t = 25 °C
Description: In order to assess the relevance of the Ca^2+ complex in sea water conditions, the average concentrations of MNZ (L), Ca^2+, Mg^2+, and other divalent cations such as Cu^2+ and Zn^2+, were considered. With the use of the thermodynamic data here determined, it is possible to carry out simulations in sea water conditions. More in detail, the protonation constants of L and the stability constants of Ca^2+-L complex species were calculated by data in Table 3 at I = 0.7 mol L^−1, i.e., the mean ionic strength of sea water. For Cu^2+-L and Zn^2+-L complexes, data of formation constants determined by us and not yet published were used. […] Formation constant values of Cu^2+- and Zn^2+-L species under sea water conditions, belonging to our unpublished study, are summarized in the Supplementary Materials.
as §2

[6] = CL = 8·10^-10 mol L^-1, CZn = 1.5·10^-9 mol L^-1

For `Cc1ncc([N+](=O)[O-])n1CCO` [MNZ, 2-Methyl-5-nitroimidazole-1-ethanol], the “C (empirical parameter for dependence on ionic strength, Equation (5))” value ([1]; L + 2H = LH2) was 1.16(6), the “log^Tβ (constant at infinite dilution)” value ([1]; L + 2H = LH2) was 14.4(1) and the “C (empirical parameter for dependence on ionic strength, Equation (5))” value ([1]; L + H = LH) was 0.7(2) ^1. The “log^Tβ (constant at infinite dilution)” value ([1]; L + H = LH) was 12.0(3) ^1, the “C (empirical parameter for dependence on ionic strength, Equation (5))” value [2] was 1.0(2) and the “log^Tβ (constant at infinite dilution)” value ([2]; extrapolated to I = 0 mol L^-1) was 15.0(2). For the same compound, the “logβ UV” value ([3]; L + 2H = LH2) was 14.20(6), the “logβ UV” value ([3]; L + H = LH) was 11.73(2) ^1 and the “logK2 (protonation constant)” value ([3]; UV spectrophotometry, I = 0.15 mol L^-1 in NaCl) was 2.47. The “logβ^CaLH” value ([4]; Ca + L + H = CaLH, t = 15 °C, I = 0.16 mol L^-1 NaCl) was 14.06(11) ^4, 5, the logβ average value ([4]; Ca + L + H = CaLH, t = 25 °C, I = 0.15 mol L^-1, average of UV, potentiometry) was 14.16(7) and the “logβ^CaLH” value ([4]; Ca + L + H = CaLH, t = 25 °C, I = 0.5 mol L^-1 NaCl) was 15.00(2). For the same compound, the “logβ^CaLH” value ([4]; Ca + L + H = CaLH, t = 25 °C, I = 0.98 mol L^-1 NaCl) was 14.60(5) ^6, the “logβ^CaLH” value ([4]; Ca + L + H = CaLH, t = 37 °C, I = 0.15 mol L^-1 NaCl) was 13.56(8) ^7 and the “logK^CaLH” value ([4]; t = 15 °C, I = 0.16 mol L^-1 NaCl) was 2.06 ^5. For the same compound, the “logK^CaLH” value ([4]; t = 25 °C, I = 0.16 mol L^-1 NaCl (text: 0.15)) was 2.49 ^5, the “logK^CaLH” value ([4]; t = 25 °C, I = 0.5 mol L^-1 NaCl) was 2.49 and the “logK^CaLH” value ([4]; t = 25 °C, I = 0.98 mol L^-1 NaCl) was 2.38 ^6. The “logK^CaLH” value ([4]; t = 37 °C, I = 0.15 mol L^-1 NaCl) was 1.68 and 1.68 ^7, the “percentage of LH species” value ([5]; CL = 8·10^-10 mol L^-1) was 22% and the “percentage of CaLH species” value ([5]; CL = 8·10^-10 mol L^-1, CCa = 0.01 mol L^-1) was 29%. For the same compound, the “percentage of CuL species” value ([5]; CL = 8·10^-10 mol L^-1, CCu = 4·10^-5 mol L^-1) was 10%, the “percentage of ZnL species” value [5, 6] was 4% and the “percentage of ZnLOH species” value [5, 6] was 35%.
